Source: patent US8354400B2, “Benzoxazole compounds and methods of use” (Eisai R&D Co., Ltd., priority 2008, dated 2013)
Entries after “also recorded” stand apart in the source; their conditions may differ.

What was measured:
MRL/lpr mice = assay: MRL/lpr spontaneous lupus model, Experiment 2; assay type: in vivo; conditions: for serum anti-dsDNA levels: MRL/lpr mice, Experiment 2, doses per Table 4
Protocol: In this SLE experiment, dosing, groups were as described in Table 4 below. Two dose levels of Compound 23 were compared to HCQ and cyclophosphamide (Cytoxan®). HCQ and cyclophosphamide are currently used in the treatment of cutaneous and systemic lupus, respectively. […] Sera were assayed at a 1:600 dilution in PBS. (Mouse Anti-dsDNA Total Ig Qualitative ELISA kits, Alpha Diagnostic International). Dosing was conducted by either oral (p.o.) or intraperitoneal (i.p.) administration.

human TLR9 = target: T1, human TLR9 (Homo sapiens, UniProt Q9NR96); assay: Primary assay: HEK/TLR9 activation (NF-kB luciferase reporter, Oligo CpG 2006 stimulation); assay type: cell-based; conditions: HEK293 transfected with human TLR9 and NF-kB luciferase; compound 30 min before Oligo CpG 2006; overnight; read-out: HEK/TLR9 IC50
T1 construct: expressed in transfected cells; host or cells: HEK293 (ATCC No. CRP-1573 [sic])
T1 sequence (Q9NR96 26-1032): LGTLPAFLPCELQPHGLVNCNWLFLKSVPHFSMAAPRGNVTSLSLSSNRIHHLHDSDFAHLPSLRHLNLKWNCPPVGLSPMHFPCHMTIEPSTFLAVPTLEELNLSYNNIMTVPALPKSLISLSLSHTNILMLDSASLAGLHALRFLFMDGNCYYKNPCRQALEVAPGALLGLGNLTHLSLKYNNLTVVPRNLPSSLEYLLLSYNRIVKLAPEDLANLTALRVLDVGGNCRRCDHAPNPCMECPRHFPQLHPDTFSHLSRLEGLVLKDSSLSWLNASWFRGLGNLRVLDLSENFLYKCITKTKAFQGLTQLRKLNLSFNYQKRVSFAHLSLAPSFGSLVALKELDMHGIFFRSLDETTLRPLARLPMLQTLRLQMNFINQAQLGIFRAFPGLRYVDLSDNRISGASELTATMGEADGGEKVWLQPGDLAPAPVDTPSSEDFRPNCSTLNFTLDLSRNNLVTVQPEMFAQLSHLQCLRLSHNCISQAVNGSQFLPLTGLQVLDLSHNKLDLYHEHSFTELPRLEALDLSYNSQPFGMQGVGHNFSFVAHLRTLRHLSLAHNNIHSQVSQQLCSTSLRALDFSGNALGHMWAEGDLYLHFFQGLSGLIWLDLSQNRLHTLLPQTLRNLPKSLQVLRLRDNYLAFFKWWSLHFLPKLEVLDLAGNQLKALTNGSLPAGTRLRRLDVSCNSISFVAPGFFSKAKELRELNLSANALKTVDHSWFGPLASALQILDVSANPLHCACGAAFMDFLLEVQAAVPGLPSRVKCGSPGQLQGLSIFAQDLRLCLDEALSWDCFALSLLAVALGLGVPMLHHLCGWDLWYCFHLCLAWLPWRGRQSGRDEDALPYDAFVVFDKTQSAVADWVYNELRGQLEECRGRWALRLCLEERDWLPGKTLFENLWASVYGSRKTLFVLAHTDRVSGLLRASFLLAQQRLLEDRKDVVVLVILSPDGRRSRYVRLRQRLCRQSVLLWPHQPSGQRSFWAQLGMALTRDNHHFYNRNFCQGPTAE
Source text: A. Primary Assay. The primary assay involved transfecting human embryonic kidney epithelial (HEK) cells with TLR9. More specifically, HEK293 […] cells (ATCC No. CRP-1573, American Type Culture Collection, Manassas, Va.) were transfected with pcDNA3.1D/V5-His-TOPO® plasmid (Invitrogen, Carlsbad, Calif.) encoding human TLR9 (directly inserted as a Tag polymerase-amplified PCR product) and firefly luciferase under the control of three NF-kB binding sites contained in the E-selectin-1 promoter, which was cloned into a pGL3-Enhancer Vector (Promega Corp, Madison, Wis.). Each compound was added to cells 30 min. before stimulation with Oligo CpG 2006, a synthetic phosphorothioate oligonucleotide (Hartmann et al., J Immunol. 164:1617-24 (2000)), with nucleotide sequence 5′-TCGTCGTTTTGTCGTTTTGTCGTT-3′ (SEQ ID NO:1). The cells were incubated overnight at 37° C. The luciferase substrate Steady-Glo® (Promega) was added to the wells, and luminescence was measured to determine the extent of TLR9-driven gene activation. The luminescence data was used to calculate an IC50 for each sample. The IC50 is defined as the concentration of compound that suppresses the luminescence to 50% of that observed in the absence of compound, in other words, with full stimulation.

human TLR7 = target: T2, human TLR7 (Homo sapiens, UniProt Q9NYK1); assay: HEK/TLR7 activation assay (R848 stimulation); assay type: cell-based; conditions: HEK cells transfected with human TLR7
T2 construct: expressed in transfected cells; host or cells: HEK cell line (HEK293, as in the primary assay)
T2 sequence (Q9NYK1 27-1049): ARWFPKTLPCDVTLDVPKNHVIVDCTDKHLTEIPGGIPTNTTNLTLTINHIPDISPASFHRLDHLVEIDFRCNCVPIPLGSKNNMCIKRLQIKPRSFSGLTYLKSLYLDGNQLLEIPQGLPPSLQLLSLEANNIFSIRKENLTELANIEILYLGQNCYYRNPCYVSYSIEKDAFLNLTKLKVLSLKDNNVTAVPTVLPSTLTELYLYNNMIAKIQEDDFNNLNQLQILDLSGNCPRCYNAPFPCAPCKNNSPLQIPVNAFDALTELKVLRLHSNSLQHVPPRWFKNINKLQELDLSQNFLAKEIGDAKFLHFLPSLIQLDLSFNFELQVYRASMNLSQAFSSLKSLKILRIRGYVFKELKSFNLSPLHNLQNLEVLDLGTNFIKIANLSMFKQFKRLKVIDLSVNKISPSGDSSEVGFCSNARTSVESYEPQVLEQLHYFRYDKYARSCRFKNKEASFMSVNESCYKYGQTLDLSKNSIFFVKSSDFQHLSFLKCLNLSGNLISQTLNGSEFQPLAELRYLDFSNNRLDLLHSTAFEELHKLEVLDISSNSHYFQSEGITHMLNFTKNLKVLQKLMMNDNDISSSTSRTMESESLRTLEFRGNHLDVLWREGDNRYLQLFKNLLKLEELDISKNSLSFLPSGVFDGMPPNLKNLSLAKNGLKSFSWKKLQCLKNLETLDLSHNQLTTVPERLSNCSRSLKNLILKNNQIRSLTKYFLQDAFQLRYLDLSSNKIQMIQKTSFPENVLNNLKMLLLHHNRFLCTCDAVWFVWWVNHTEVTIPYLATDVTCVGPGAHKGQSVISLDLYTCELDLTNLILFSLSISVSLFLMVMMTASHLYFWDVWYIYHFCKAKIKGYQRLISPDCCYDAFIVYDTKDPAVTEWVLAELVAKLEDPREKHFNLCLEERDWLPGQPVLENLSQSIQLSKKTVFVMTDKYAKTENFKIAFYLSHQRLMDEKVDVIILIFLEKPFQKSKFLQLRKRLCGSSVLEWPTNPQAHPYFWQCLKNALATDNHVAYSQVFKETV
Protocol: (1) HEK/TLR7Activation Assay: The same compounds were tested in the same way as the primary assay with the following differences. The plasmid used to transfect the HEK cell line encoded for human TLR7 instead of TLR9, and R848 was used to stimulate the cells instead of Oligo CpG 2006.

[1] = system: serum IL-6 after s.c. oligo CpG 1668 challenge; assay: In vivo short term CpG stimulation assay (serum IL-6); design: species or system mice; conditions: Mus musculus, po, 2 h, mice, oral in water, 20 mg/kg, s.c. 30 micrograms oligo CpG 1668 within 90 minutes, serum two hours later; repeat assays separated by commas; read-out: Percent short-term IL-6 suppression
Protocol: Short Term CpG Stimulation Assay: Compounds identified as having potency in the HEK/TLR9 and splenocyte CpG 1668 assays described in Example 9, above, were tested in an in vivo short term CpG stimulation assay. Mice were orally administered compound in water, and challenged within 90 minutes by subcutaneous (s.c.) injection of 30 micrograms of oligo CpG 1668. Two hours later serum was taken and assayed for IL-6 using ELISA analysis. Results from assays repeated on different dates are set forth as multiple numbers separated by commas.

[2] = system: mouse spleen IL-6 production in response to Oligo CpG 1668; assay: Splenocyte CpG 1668 assay (IL-6 ELISA); assay type: cell-based; conditions: mouse splenocytes, Oligo CpG 1668, 72 hrs
Protocol: (2) Splenocyte CpG 1668 Assay: Some of the compounds tested in the primary assay were also assayed for suppression of mouse spleen IL-6 production in response to stimulation with Oligo CpG 1668, a synthetic phosphorothioate oligonucleotide (Krieg et al. Nature. 374:546-9 (1995)), with nucleotide sequence [NT] (SEQ ID NO:2). Each compound was added to dissociated splenocytes before addition of stimulatory oligonucleotide. Cells were stimulated in culture for 72 hrs and the supernatant was removed for ELISA analysis of IL-6 level. Here the IC50 is defined as the concentration of compound that suppresses cytokine production to 50% of that observed in the absence of compound, i.e., full stimulation.

[3] = system: dissociated mouse splenocytes; assay: Spleen CellTiter-Glo viability assay; assay type: cell-based; conditions: Splenocyte, 72 hours, viability (ATP)
Protocol: (3) Spleen CT Glo Assay: To determine if compounds had adverse effects on living cells, dissociated mouse splenocytes were incubated with some of the compounds for 72 hours. At the end of the incubation Celliter-Glo™ reagent (Promega Corporation, Madison, Wis.) was added and luminescence was read per manufacturer's instructions. This reagent measures ATP as an indication of cell metabolism. Dead cells will not produce signal. IC50 is defined as the concentration of compound that suppresses viability to 50% of that observed in the absence of compound. The few compounds that measurably affected viability did so at concentrations far above those that affected cytokine release in response to TLR9 stimulation.

SMILES | serum anti-dsDNA levels (MRL/lpr mice) | difference in serum anti-dsDNA vs. vehicle by ANOVA (MRL/lpr mice; 8 and 12 week dosing points) | IC50 (human TLR9) | IC50 (human TLR7) | inhibition in vivo at 20 mg/kg [1] | IC50 [2] | IC50 [3]
CCN(CCO)CCCC(C)Nc1ccnc2cc(Cl)ccc12 (centres unmarked) [hydroxychloroquine] | no detectable effect |  |  |  |  |  | 
O=P1(N(CCCl)CCCl)NCCCO1 (centres unmarked) [Cyclophosphamide, cyclophosphamide] | consistent suppression; also recorded: suppressed anti-dsDNA | statistically significant |  |  |  |  | 
CN(C)CCCOc1ccc2nc(-c3ccc(OCCCN(C)CCCN(C)C)cc3)oc2c1 [Compound 34] |  |  | 4 nM | 800 nM | 26% |  | 
CN(C)CCCOc1ccc2nc(-c3ccc(OCCCN(C)CCOCCOCCN(C)C)cc3)oc2c1 [Compound 35] |  |  | 29 nM | 1400 nM | 38% | 40 nM | 
COC[C@H]1CCCN1CCCOc1ccc(-c2nc3ccc(OCCCN4CCC[C@@H]4COC)cc3o2)cc1 [Compound 26] |  |  | 12.4 nM |  | 81% | 42 nM | > 10000 nM
